Test results: PubChem BioAssay AID1919001 (Molecular Pharmacology Branch, DTP, NCI, 2023)

Test system: 699152-130-R-J1-PDC complex spheroid growth
Assay: Anticancer human tumor 699152-130-R-J1-PDC patient-derived pancreatic carcinoma cell line growth inhibition [AhR]
Conditions: for IC50: curve of first compound; for viability, T/C: stronger effect = lower value; active means viability on the fitted dose curve at most 10% of control; inactive means the rest
In short: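 Agents were dosed in half-log steps down from roughly clinical Cmax, or from 10 microM where Cmax was unknown, alone and with AhR antagonists. Read-out: percent test/control growth of tumor spheroids containing HUVEC and MSC stromal cells.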

[1] = second compound 0.1 µM, first compound 0.0316 µM
[2] = second compound 0.1 µM, first compound 0.1 µM
[3] = second compound 0.1 µM, first compound 0.316 µM
[4] = second compound 0.1 µM, first compound 1 µM
[5] = second compound 0.316 µM, first compound 0.0316 µM
[6] = second compound 0.316 µM, first compound 0.1 µM
[7] = second compound 0.316 µM, first compound 0.316 µM
[8] = second compound 0.316 µM, first compound 1 µM
[9] = second compound 1 µM, first compound 0.0316 µM
[10] = second compound 1 µM, first compound 0.1 µM
[11] = second compound 1 µM, first compound 0.316 µM
[12] = second compound 1 µM, first compound 1 µM
[13] = second compound 3.16 µM, first compound 0.0316 µM
[14] = second compound 3.16 µM, first compound 0.1 µM
[15] = second compound 3.16 µM, first compound 0.316 µM
[16] = second compound 3.16 µM, first compound 1 µM
[17] = second compound 10 µM, first compound 0.0316 µM
[18] = second compound 10 µM, first compound 0.1 µM
[19] = second compound 10 µM, first compound 0.316 µM
[20] = second compound 10 µM, first compound 1 µM
[21] = second compound 0.1 µM, first compound 3.16 µM
[22] = second compound 0.1 µM, first compound 10 µM
[23] = second compound 0.316 µM, first compound 3.16 µM
[24] = second compound 0.316 µM, first compound 10 µM
[25] = second compound 1 µM, first compound 3.16 µM
[26] = second compound 1 µM, first compound 10 µM
[27] = second compound 3.16 µM, first compound 3.16 µM
[28] = second compound 3.16 µM, first compound 10 µM
[29] = second compound 10 µM, first compound 3.16 µM
[30] = second compound 10 µM, first compound 10 µM
[31] = second compound 0.1 µM, first compound 0.00949 µM
[32] = second compound 0.1 µM, first compound 0.03 µM
[33] = second compound 0.1 µM, first compound 0.0949 µM
[34] = second compound 0.1 µM, first compound 0.3 µM
[35] = second compound 0.316 µM, first compound 0.00949 µM
[36] = second compound 0.316 µM, first compound 0.03 µM
[37] = second compound 0.316 µM, first compound 0.0949 µM
[38] = second compound 0.316 µM, first compound 0.3 µM
[39] = second compound 1 µM, first compound 0.00949 µM
[40] = second compound 1 µM, first compound 0.03 µM
[41] = second compound 1 µM, first compound 0.0949 µM
[42] = second compound 1 µM, first compound 0.3 µM
[43] = second compound 3.16 µM, first compound 0.00949 µM
[44] = second compound 3.16 µM, first compound 0.03 µM
[45] = second compound 3.16 µM, first compound 0.0949 µM
[46] = second compound 3.16 µM, first compound 0.3 µM
[47] = second compound 10 µM, first compound 0.00949 µM
[48] = second compound 10 µM, first compound 0.03 µM
[49] = second compound 10 µM, first compound 0.0949 µM
[50] = second compound 10 µM, first compound 0.3 µM
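Further: compound exposure lasted 7 days after spheroids had grown for 3 days.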

CC1COCCN1c1cc(-c2ccnn2C)c2ccnc(-c3ccn[nH]3)c2n1 (stereo not given) + CC(CO)NC(=O)c1cc(-c2ccc(Cl)cc2)nn(-c2cnn(C)c2)c1=O
inactive: viability, T/C (second compound 0.1 µM, first compound 0.00316 µM) 105% | viability, T/C (second compound 0.1 µM, first compound 0.01 µM) 112% | viability, T/C [1] 112% | viability, T/C [2] 94.2% | viability, T/C [3] 86.8% | viability, T/C [4] 63.3% | viability, T/C (second compound 0.316 µM, first compound 0.00316 µM) 102% | viability, T/C (second compound 0.316 µM, first compound 0.01 µM) 100% | viability, T/C [5] 110% | viability, T/C [6] 92.1% | viability, T/C [7] 77.7% | viability, T/C [8] 59.1% | viability, T/C (second compound 1 µM, first compound 0.00316 µM) 102% | viability, T/C (second compound 1 µM, first compound 0.01 µM) 101% | viability, T/C [9] 105% | viability, T/C [10] 87.5% | viability, T/C [11] 72.3% | viability, T/C [12] 58.3% | viability, T/C (second compound 3.16 µM, first compound 0.00316 µM) 85.8% | viability, T/C (second compound 3.16 µM, first compound 0.01 µM) 105% | viability, T/C [13] 84.6% | viability, T/C [14] 80.1% | viability, T/C [15] 74% | viability, T/C [16] 65% | viability, T/C (second compound 10 µM, first compound 0.00316 µM) 97.7% | viability, T/C (second compound 10 µM, first compound 0.01 µM) 82.7% | viability, T/C [17] 81.5% | viability, T/C [18] 73.9% | viability, T/C [19] 64.6% | viability, T/C [20] 58.1%
> 1 µM: IC50 (second compound 0.1 µM) | IC50 (second compound 0.316 µM) | IC50 (second compound 1 µM) | IC50 (second compound 3.16 µM) | IC50 (second compound 10 µM)

CC1COCCN1c1cc(C2(S(C)(=N)=O)CC2)nc(-c2ccnc3[nH]ccc23)n1 (stereo not given) + CC(CO)NC(=O)c1cc(-c2ccc(Cl)cc2)nn(-c2cnn(C)c2)c1=O
inactive: viability, T/C [1] 87.9% | viability, T/C [2] 95.5% | viability, T/C [3] 88.7% | viability, T/C [4] 94.5% | viability, T/C [21] 79.2% | viability, T/C [22] 74.6% | viability, T/C [5] 108% | viability, T/C [6] 94.2% | viability, T/C [7] 101% | viability, T/C [8] 85.8% | viability, T/C [23] 85.5% | viability, T/C [24] 78.5% | viability, T/C [9] 98.6% | viability, T/C [10] 101% | viability, T/C [11] 94.3% | viability, T/C [12] 87.9% | viability, T/C [25] 84% | viability, T/C [26] 68% | viability, T/C [13] 80.4% | viability, T/C [14] 112% | viability, T/C [15] 88.5% | viability, T/C [16] 86.4% | viability, T/C [27] 73.4% | viability, T/C [28] 62.8% | viability, T/C [17] 78.5% | viability, T/C [18] 82.2% | viability, T/C [19] 91.3% | viability, T/C [20] 76.4% | viability, T/C [29] 72.5% | viability, T/C [30] 68.2%
> 10 µM: IC50 (second compound 0.1 µM) | IC50 (second compound 0.316 µM) | IC50 (second compound 1 µM) | IC50 (second compound 3.16 µM) | IC50 (second compound 10 µM)

COc1ccc([C@@H](O)c2cc(-c3ncnc4cc(N5CCOCC5)ccc34)c(F)cc2Cl)nn1 + CC(CO)NC(=O)c1cc(-c2ccc(Cl)cc2)nn(-c2cnn(C)c2)c1=O
inactive: viability, T/C [1] 95.1% | viability, T/C [2] 105% | viability, T/C [3] 86.2% | viability, T/C [4] 78.6% | viability, T/C [21] 52.5% | viability, T/C [22] 33.1% | viability, T/C [5] 93.5% | viability, T/C [6] 90.2% | viability, T/C [7] 91.9% | viability, T/C [8] 74.3% | viability, T/C [23] 61.5% | viability, T/C [24] 32.1% | viability, T/C [9] 108% | viability, T/C [10] 100% | viability, T/C [11] 94.2% | viability, T/C [12] 74.1% | viability, T/C [25] 56.5% | viability, T/C [26] 35.9% | viability, T/C [13] 85% | viability, T/C [14] 105% | viability, T/C [15] 94.9% | viability, T/C [16] 70.6% | viability, T/C [27] 58.8% | viability, T/C [28] 34.8% | viability, T/C [17] 88.8% | viability, T/C [18] 87.9% | viability, T/C [19] 68.9% | viability, T/C [20] 63.4% | viability, T/C [29] 47.1% | viability, T/C [30] 38.1%
4.41 µM: IC50 (second compound 1 µM)
4.81 µM: IC50 (second compound 0.316 µM)
4.24 µM: IC50 (second compound 3.16 µM)
3.77 µM: IC50 (second compound 0.1 µM)
2.61 µM: IC50 (second compound 10 µM)

Nc1ncn(C2CC(O)C(CO)S2)c(=O)n1 (stereo not given) + CC(CO)NC(=O)c1cc(-c2ccc(Cl)cc2)nn(-c2cnn(C)c2)c1=O
> 0.3 µM: IC50 (second compound 0.1 µM) | IC50 (second compound 0.316 µM) | IC50 (second compound 1 µM) | IC50 (second compound 3.16 µM) | IC50 (second compound 10 µM)
inactive: viability, T/C (second compound 0.1 µM, first compound 0.000949 µM) 98% | viability, T/C (second compound 0.1 µM, first compound 0.003 µM) 104% | viability, T/C [31] 85.7% | viability, T/C [32] 103% | viability, T/C [33] 97.8% | viability, T/C [34] 94.2% | viability, T/C (second compound 0.316 µM, first compound 0.000949 µM) 89.6% | viability, T/C (second compound 0.316 µM, first compound 0.003 µM) 111% | viability, T/C [35] 105% | viability, T/C [36] 93.1% | viability, T/C [37] 93.8% | viability, T/C [38] 87.1% | viability, T/C (second compound 1 µM, first compound 0.000949 µM) 93.8% | viability, T/C (second compound 1 µM, first compound 0.003 µM) 101% | viability, T/C [39] 89.1% | viability, T/C [40] 95.3% | viability, T/C [41] 94.1% | viability, T/C [42] 86.1% | viability, T/C (second compound 3.16 µM, first compound 0.000949 µM) 86.3% | viability, T/C (second compound 3.16 µM, first compound 0.003 µM) 88% | viability, T/C [43] 91.8% | viability, T/C [44] 88.9% | viability, T/C [45] 90.1% | viability, T/C [46] 85% | viability, T/C (second compound 10 µM, first compound 0.000949 µM) 80.7% | viability, T/C (second compound 10 µM, first compound 0.003 µM) 91.8% | viability, T/C [47] 84.6% | viability, T/C [48] 87.2% | viability, T/C [49] 87% | viability, T/C [50] 86%

O=C(C=Cn1cnc(-c2cc(C(F)(F)F)cc(C(F)(F)F)c2)n1)NNc1cnccn1 + CC(CO)NC(=O)c1cc(-c2ccc(Cl)cc2)nn(-c2cnn(C)c2)c1=O
inactive: viability, T/C [31] 87.8% | viability, T/C [32] 98.4% | viability, T/C [33] 82.1% | viability, T/C [34] 74.3% | viability, T/C (second compound 0.1 µM, first compound 0.949 µM) 82.5% | viability, T/C (second compound 0.1 µM, first compound 3 µM) 83.2% | viability, T/C [35] 90.2% | viability, T/C [36] 82.5% | viability, T/C [37] 76.7% | viability, T/C [38] 87.3% | viability, T/C (second compound 0.316 µM, first compound 0.949 µM) 87.5% | viability, T/C (second compound 0.316 µM, first compound 3 µM) 70.5% | viability, T/C [39] 88.8% | viability, T/C [40] 83.9% | viability, T/C [41] 75.5% | viability, T/C [42] 74% | viability, T/C (second compound 1 µM, first compound 0.949 µM) 82.6% | viability, T/C (second compound 1 µM, first compound 3 µM) 79% | viability, T/C [43] 92.1% | viability, T/C [44] 88% | viability, T/C [45] 87% | viability, T/C [46] 71.8% | viability, T/C (second compound 3.16 µM, first compound 0.949 µM) 71.2% | viability, T/C (second compound 3.16 µM, first compound 3 µM) 75.4% | viability, T/C [47] 99% | viability, T/C [48] 82.1% | viability, T/C [49] 68.7% | viability, T/C [50] 72.4% | viability, T/C (second compound 10 µM, first compound 0.949 µM) 82.3% | viability, T/C (second compound 10 µM, first compound 3 µM) 73.4%
> 3 µM: IC50 (second compound 0.1 µM) | IC50 (second compound 0.316 µM) | IC50 (second compound 1 µM) | IC50 (second compound 3.16 µM) | IC50 (second compound 10 µM)
